Measurements from ChEMBL document CHEMBL5625228, “Design, synthesis, and bioactivity evaluation of novel amide/sulfonamide derivatives as potential anti-inflammatory agents against acute lung injury and ulcerative colitis” (Eur J Med Chem, 2023).
Activity calls are given as the source filed them. The rule behind the calls is not given here.

Experiments:
J774.A1 [1] = assay: Antiinflammatory activity against mouse J774.A1 cells assessed as inhibition of LPS-induced IL-6 production pretreated with compound for 30 mins followed by LPS induction and measured after 24 hrs by ELISA analysis; format: functional; settings: for inhibition (INH): time 1470 min, 24.5 h; for inhibition: time 1470.0 min; as to INH: test concentration or dose not given here
J774.A1 [2] = assay: Antiinflammatory activity against mouse J774.A1 cells assessed as inhibition of LPS-induced TNF-alpha production pretreated with compound for 30 mins followed by LPS induction and measured after 24 hrs by ELISA analysis; format: functional; settings: for inhibition (INH): time 1470 min, 24.5 h; for inhibition: time 1470.0 min; as to INH: test concentration or dose not given here

Row | Compound | inhibition (INH) (J774.A1 [1]) | inhibition (INH) (J774.A1 [2]) | inhibition (J774.A1 [1]) | inhibition (J774.A1 [2])
1 | O=C(CCN1CCN(Cc2ccc([N+](=O)[O-])cc2)CC1)NCc1ccccn1 | 36.81% | 25.79% | – | –
2 | O=S(=O)(CCN1CCN(Cc2ccccc2)CC1)NCc1ccccn1 | 54.87% | 43.92% | – | –
3 | COc1ccc(NC(=O)CN2CCN(c3ncccn3)CC2)cn1 | 33.21% | 47.96% | – | –
4 | O=S(=O)(CCN1CCN(c2ncccn2)CC1)NCc1ccccn1 | 50.45% | 40.39% | – | –
5 | O=[N+]([O-])c1cc(S(=O)(=O)NCc2ccccn2)ccc1N1CCN(c2ncccn2)CC1 | 20.86% | 18.24% | – | –
6 | COc1ccc(NS(=O)(=O)CCN2CCN(Cc3ccccc3)CC2)cn1 | 13.57% | 16.24% | – | –
7 | O=[N+]([O-])c1ccc(CN2CCN(CCS(=O)(=O)NCc3ccccn3)CC2)cc1 | 49.16% | 41.37% | – | –
8 | COc1ccc(CN2CCN(CC(=O)Nc3ccc(OC)nc3)CC2)cc1 | 19.35% | 38.65% | – | –
9 | O=C(CN1CCN(Cc2cccc([N+](=O)[O-])c2)CC1)Nc1cccc2ccccc12 | 36.57% | 49.62% | – | –
10 | COc1ccc(NS(=O)(=O)CCN2CCN(c3ccc([N+](=O)[O-])cc3)CC2)cn1 | 54.03% | 47.01% | – | –
11 | CC(=O)Nc1ncc(CN2CCN(CCS(=O)(=O)Nc3cccc4ccccc34)CC2)s1 | 43.92% | 25.56% | – | –
12 | COc1ccc(CN2CCN(c3ccc(S(=O)(=O)NCc4ccccn4)cc3[N+](=O)[O-])CC2)cc1 | 53.8% | 18.06% | – | –
13 | O=S(=O)(CCN1CCN(Cc2ccccc2)CC1)Nc1ccc2ncccc2c1 | 43.09% | 9.54% | – | –
14 | O=C(CN1CCN(c2ccc([N+](=O)[O-])cc2)CC1)Nc1cccc2ccccc12 | 17.67% | 17.43% | – | –
15 | O=[N+]([O-])c1ccc(N2CCN(CCS(=O)(=O)Nc3ccc4ncccc4c3)CC2)cc1 | 63.27% | 41.31% | – | –
16 | O=C(CCN1CCN(Cc2ccccc2)CC1)NCc1ccccn1 | 31% | 40.52% | – | –
17 | O=[N+]([O-])c1cccc(CN2CCN(CCS(=O)(=O)NCc3ccccn3)CC2)c1 | 41.05% | 38.96% | – | –
18 | O=C(CCN1CCN(c2ccc([N+](=O)[O-])cc2)CC1)NCc1ccccn1 | 19.64% | 20.88% | – | –
19 | O=S(=O)(CCN1CCN(c2ncccn2)CC1)Nc1ccc2ncccc2c1 | 23.7% | 5.34% | – | –
20 | O=C(CN1CCN(Cc2cccc([N+](=O)[O-])c2)CC1)NCc1ccccn1 | 21.88% | 39.82% | – | –
21 | O=[N+]([O-])c1cccc(CN2CCN(CCS(=O)(=O)Nc3ccc4ncccc4c3)CC2)c1 | 54.36% | 23.97% | – | –
22 | O=[N+]([O-])c1ccc(CN2CCN(CCS(=O)(=O)Nc3ccc4ncccc4c3)CC2)cc1 | 58.07% | 24.49% | – | –

Row | Compound | inhibition (INH) (J774.A1 [1]) | inhibition (INH) (J774.A1 [2]) | inhibition (J774.A1 [1]) | inhibition (J774.A1 [2])
23 | O=[N+]([O-])c1ccc(N2CCN(CCS(=O)(=O)Nc3cccc4ccccc34)CC2)cc1 | 54.08% | 48.59% | – | –
24 | O=C(CN1CCN(Cc2ccccc2)CC1)NCc1ccccn1 | 23.3% | 40.91% | – | –
25 | O=[N+]([O-])c1ccc(N2CCN(CCS(=O)(=O)NCc3ccccn3)CC2)cc1 | 60.1% | 51.16% | – | –
26 | O=C(CCN1CCN(c2ccc([N+](=O)[O-])cc2)CC1)Nc1cccc2ccccc12 | – | – | inactive | inactive
27 | O=C(CN1CCN(Cc2ccc([N+](=O)[O-])cc2)CC1)Nc1cccc2ccccc12 | 51.42% | 44.12% | – | –
28 | O=C(CN1CCN(c2ccc([N+](=O)[O-])cc2)CC1)Nc1ccccn1 | 54.4% | 41.4% | – | –
29 | COc1ccc(NC(=O)CN2CCN(Cc3ccccc3)CC2)cn1 | 9.69% | 34.1% | – | –
30 | COc1ccc(CN2CCN(CCS(=O)(=O)NCc3ccccn3)CC2)cc1 | 44.03% | 35.94% | – | –
31 | COc1ccc(NC(=O)CN2CCN(c3ccc([N+](=O)[O-])cc3)CC2)cn1 | 26.57% | 35.31% | – | –
32 | COc1ccc(NS(=O)(=O)CCN2CCN(Cc3cccc([N+](=O)[O-])c3)CC2)cn1 | 30.6% | 34.88% | – | –
33 | CC(=O)Nc1ncc(CN2CCN(CC(=O)NCc3ccccn3)CC2)s1 | 19.68% | 36.32% | – | –
34 | COc1ccc(CN2CCN(CCS(=O)(=O)Nc3ccc(OC)nc3)CC2)cc1 | 55.78% | 39.86% | – | –
35 | O=[N+]([O-])c1ccc(CN2CCN(CCS(=O)(=O)Nc3cccc4ccccc34)CC2)cc1 | 51.66% | 52.22% | – | –
36 | COc1ccc(CN2CCN(CCS(=O)(=O)Nc3ccc4ncccc4c3)CC2)cc1 | 50.52% | 31.97% | – | –
37 | O=C(CN1CCN(c2ncccn2)CC1)Nc1cccc2ccccc12 | 9.078% | 18.5% | – | –
38 | O=C(CN1CCN(Cc2ccccc2)CC1)Nc1cccc2ccccc12 | 37.08% | 40.65% | – | –
39 | COc1ccc(CN2CCN(CC(=O)Nc3cccc4ccccc34)CC2)cc1 | – | – | inactive | inactive
40 | O=C(CN1CCN(Cc2ccc([N+](=O)[O-])cc2)CC1)NCc1ccccn1 | 36.43% | 42.8% | – | –
41 | O=S(=O)(CCN1CCN(c2ncccn2)CC1)Nc1cccc2ccccc12 | 10.6% | 12.33% | – | –
42 | COc1ccc(CN2CCN(CC(=O)NCc3ccccn3)CC2)cc1 | 3.21% | 38.64% | – | –
43 | COc1cc(-c2csc(NC(=O)CCN3CCN(Cc4cccc([N+](=O)[O-])c4)CC3)n2)ccc1O | 78.47% | 41.39% | – | –
